Structures are written as SMILES. Marks after values point to notes of the source that are not given here.

The results in this text go back to patent US7419960B2, “Hemiterpene glycosides with anti-platelet aggregation activities from Ilex pubescens” (Hong Kong Baptist University, priority 2005, dated 2008).

This assay relates to platelet-rich-plasma (PRP). Description: Shear-induced platelet aggregation (SIPA) in platelet-rich-plasma, determined by turbidity. The assay is classed as cell-based, Sprague-Dawley rats. The conditions noted are these: 10 μM; for Platelet aggregation rate (%) ( X ± SD): n=10, rat PRP, shear stress 15 Pa for 360 seconds, 37° C., PPP = 100%, pre-shear PRP = 0% aggregation, Control 54.400 ± 8.592; for anti-platelet aggregation activity compared with salvianolic acid B and aspirin: high shear stress-induced platelet activation and aggregation test. The protocol: Preparation of platelet-rich-plasma (PRP): Sprague-Dawley rats (350-450 g) were used as blood donors to collect anticoagulated blood. Collected blood samples were immediately transferred into a plastic tube anticoagulant ( 1/10 volume of 3.8% trisodium citrate, pH 7.4). The platelet-rich-plasma (PRP) was then prepared by centrifuging the blood at 300 rpm for 15 minutes. The platelet concentration was adjusted to a level of 5×10^5/μl by addition of homologous platelet-poor-plasma (PPP) obtained after further centrifugation of blood at 1500 rpm for 15 minutes. For getting sufficient amount of PRP, at least two rats have to be sacrificed each time to obtain a pooled PRP sample.
Shear-induced platelet aggregation (SIPA): Adjusted PRP was divided into different groups according to the experimental protocol, mixed with 10 μM of pubescenosides A, B, aspirin and Salvianolic acid B. HAAke Rheometer RS 600 (Thermo Haake Corp., Ltd., Germany) with sensor C60/0.5° was employed as shear generator. The rheometer has the benefit of controlling shear stress and with an accuracy of 1 μm by the automatic adjustment of the gap between cone and plate. The shear program for PRP is: preheating sample at 37° C., increasing stress level from 0 to 15 Pa in the duration of 30 seconds, and then maintaining the stress level at 15 Pa for 360 seconds. After shearing, PRP was transferred to a platelet aggregometer (Chrono-Log aggregometer, Model 560 CA, Chrono-Log Corp., U.S.A) and SIPA was determined by turbidity. Since platelet-poor-plasma (PPP) and the pre-shear PRP were used as the turbidity scales of 100% and 0% aggregation, respectively, the aggregative degree of post-shear PRP could be measured.

Turning to `CC(=O)Oc1ccccc1C(=O)O` [Aspirin, aspirin, reference compound], the “Platelet aggregation rate (%) ( X ± SD)” value is 44.700 ± 4.668 %.
Turning to `C=C(COC(=O)/C=C/c1ccc(O)c(O)c1)C(O)CO[C@@H]1O[C@H](CO)[C@@H](O)[C@H](O)[C@H]1O` (stereo partly drawn) [Pubescenoside A, 4-caffeoyloxy-2-hydroxy-3-methylene-butane-1-O-β-D-glucopyranoside], the “Platelet aggregation rate (%) ( X ± SD)” value is 36.550 ± 7.697*^▪▴ %; the “anti-platelet aggregation activity compared with salvianolic acid B and aspirin” value is listed as “much stronger”.
As to `C=C(CO)C(CO[C@@H]1OC(CO)[C@@H](O)C(O)C1O)OC(=O)/C=C/c1ccc(O)c(O)c1` (stereo partly drawn) [Pubescenoside B, 4-hydroxy-2-caffeoyloxy-3-methylene-butane-1-O-β-D-glucopyranoside], the “Platelet aggregation rate (%) ( X ± SD)” value is listed as 27.300 ± 10.263*^□ %; the “anti-platelet aggregation activity compared with salvianolic acid B and aspirin” value was “much stronger”.
In the case of `O=C(/C=C/c1ccc(O)c2c1[C@H](C(=O)O[C@H](Cc1ccc(O)c(O)c1)C(=O)O)[C@@H](c1ccc(O)c(O)c1)O2)O[C@H](Cc1ccc(O)c(O)c1)C(=O)O` [Salvianolic acid B, salvianolic acid B, reference compound], the “Platelet aggregation rate (%) ( X ± SD)” value is 39.650 ± 8.577 %.
